Experimental data from patent US20060264460A1 (Wyeth, priority 2005, published 2006).

Target: T1, human Cot/Tpl2 kinase (Homo sapiens, UniProt P41279)
T1 construct: human Cot/Tpl2 kinase construct encoding residues 30-398; 6His (N); made in house; host or cells: Sf9 insect cells, baculovirus system (BD Biosciences)
Assay: Tpl2/Cot kinase assay: GST-MEK1 phosphorylation detected by ELISA (DELFIA Eu)
Assay type: biochemical
How it was run: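 His-tagged human Tpl2 from Sf9 cells, Ni-affinity and size-exclusion purified (monomer). 0.4 nM Tpl2 with 35 nM GST-MEK1, 50 uM ATP, MOPS pH 7.2, 1% DMSO, 1 h at 30° C; EDTA stop. MEK1 Ser217/221 phosphorylation detected by anti-phospho-MEK1 and Eu-labelled secondary ELISA; IC50 fitted.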

[1] = 0.4 nM Tpl2, 35 nM GST-MEK1, 50 uM ATP, 1 h at 30° C.
[2] = Table 2, Tpl2/Cot kinase, GST-MEK1 substrate, 50 uM ATP
[3] = Tpl2/Cot kinase, GST-MEK1 substrate, 50 uM ATP
[4] = Tpl2/Cot kinase, GST-MEK1 substrate, 50 uM ATP, 1 h at 30° C., Table 2

T1 sequence (P41279 30-398): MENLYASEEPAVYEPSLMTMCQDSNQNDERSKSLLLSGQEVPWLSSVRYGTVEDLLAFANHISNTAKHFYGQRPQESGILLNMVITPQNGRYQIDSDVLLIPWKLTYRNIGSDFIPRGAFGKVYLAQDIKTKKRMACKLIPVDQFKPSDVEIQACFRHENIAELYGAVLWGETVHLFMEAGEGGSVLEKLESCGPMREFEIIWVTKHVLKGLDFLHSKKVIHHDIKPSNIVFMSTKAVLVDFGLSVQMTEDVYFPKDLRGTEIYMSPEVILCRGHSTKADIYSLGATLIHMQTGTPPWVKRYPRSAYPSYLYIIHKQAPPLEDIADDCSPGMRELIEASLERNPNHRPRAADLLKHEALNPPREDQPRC

IC50 [1]	IC50 [2]	SMILES	other results
750 nM	–	N#Cc1cnc2ccc(NCc3nccn3CC(=O)NC3CCNCC3)cc2c1Nc1ccc(F)c(Cl)c1 [Example 143, 2-(2-((4-(3-chloro-4-fluorophenylamino)-3-cyanoquinolin-6-ylamino)methyl)-1H-imidazol-1-yl)-N-(piperidin-4-yl)acetamide]	–
–	100 nM	N#Cc1cnc2c(Cl)cc(NCc3nc[nH]n3)cc2c1Nc1ccc(F)c(Cl)c1 [Example 483]	–
130 nM	–	N#Cc1ccccc1CNc1ccc2ncc(C#N)c(Nc3ccc(F)c(Cl)c3)c2c1 [Example 21, 4-(3-Chloro-4-fluoro-phenylamino)-6-(2-cyano-benzylamino)-quinoline-3-carbonitrile]	–
–	> 3000 nM	N#Cc1cnc2c(Cl)cc(NC[C@@H]3CCCN3)cc2c1Nc1ccc(F)c(Cl)c1 [Example 619]	–
–	250 nM	N#Cc1cnc2c(Br)cc(NCc3ccnn3-c3ccccc3)cc2c1Nc1ccc(F)c(Cl)c1 [Example 433]	–
3900 nM	–	CC(Nc1ccc2ncc(C#N)c(Nc3ccc(F)c(Cl)c3)c2c1)c1cnc[nH]1 (centres unmarked) [Example 179, 6-(1-(1H-imidazol-5-yl)ethylamino)-4-(3-chloro-4-fluorophenylamino)quinoline-3-carbonitrile]	–
200 nM	–	Cc1ncn(C)c1CNc1ccc2ncc(C#N)c(Nc3ccc(F)c(Cl)c3)c2c1 [Example 133, 4-(3-chloro-4-fluorophenylamino)-6-((1,4-dimethyl-1H-imidazol-5-yl)methylamino)quinoline-3-carbonitrile]	–
64 nM	–	Cc1nc(CNc2cc(Cl)c3ncc(C#N)c(Nc4ccc(F)c(Cl)c4)c3c2)cn1CC(N)=O [Example 191, 2-(4-((8-chloro-4-(3-chloro-4-fluorophenylamino)-3-cyanoquinolin-6-ylamino)methyl)-2-methyl-1H-imidazol-1-yl)acetamide]	–
–	–	N#Cc1cnc2c(Br)cc(NCc3cc(C4CCNCC4)n[nH]3)cc2c1Nc1ccc(F)c(Cl)c1 [Example 707]	IC50 [3]: 800 nM
–	1000 nM	N#Cc1cnc2ccc(NCCN3CCOCC3)cc2c1Nc1ccc(F)c(Cl)c1 [Example 337]	–
–	–	N#Cc1cnc2c(Cl)cc(NCC3CCCN(C(=O)CNCc4ccccn4)C3)cc2c1Nc1ccc(F)c(Cl)c1 (centres unmarked) [Example 922]	IC50 [4]: 1690 nM
–	> 3000 nM	CCN(C[C@@H]1CCCN1C(=O)OC(C)(C)C)c1cc(Cl)c2ncc(C#N)c(Nc3ccc(F)c(Cl)c3)c2c1 [Example 623]	–
–	230 nM	COCCCNC(=O)CNc1cc(Cl)c2ncc(C#N)c(Nc3ccc(F)c(Cl)c3)c2c1 [Example 606]	–
–	–	N#Cc1cnc2c(Br)cc(NCc3cn(CCC4CCNCC4)nn3)cc2c1Nc1ccc(F)c(Cl)c1 [Example 691]	IC50 [3]: 90 nM
–	–	CN1CCC(Cn2cc(CNc3cc(Cl)c4ncc(C#N)c(Nc5ccc(F)c(Cl)c5)c4c3)nn2)CC1 [Example 825]	IC50 [3]: 37 nM
–	–	N#Cc1cnc2c(Cl)cc(OCc3cn(C4CCNCC4)nn3)cc2c1Nc1ccc(F)c(Cl)c1 [Example 940]	IC50 [4]: 150 nM
3.5 nM	–	CCc1nc[nH]c1CNc1cc(Br)c2ncc(C#N)c(Nc3ccc(F)c(Cl)c3)c2c1 [Example 112, 8-bromo-4-(3-chloro-4-fluorophenylamino)-6-((4-ethyl-1H-imidazol-5-yl)methylamino)quinoline-3-carbonitrile]	–
19 nM	–	CN1CCC(n2cc(CNc3cc(Br)c4ncc(C#N)c(Nc5ccc(F)c(Cl)c5)c4c3)nn2)CC1 [Example 317, 8-bromo-4-[(3-chloro-4-fluorophenyl)amino]-6-({[1-(1-methylpiperidin-4-yl)-1H-1,2,3-triazol-4-yl]methyl}amino)quinoline-3-carbonitrile]	–
15 nM	–	N#Cc1cnc2c(Br)cc(NCc3cn(CCN4CCCCC4)nn3)cc2c1Nc1ccc(F)c(Cl)c1 [Example 296, 8-Bromo-4-(3-chloro-4-fluoro-phenylamino)-6-{[1-(2-piperidin-1-yl-ethyl)-1H-[1,2,3]triazol-4-ylmethyl]-amino}-quinoline-3-carbonitrile]	–

IC50 [1]	IC50 [2]	SMILES	other results
–	> 40000 nM	CN(C)C(=O)c1cc([N+](=O)[O-])cc2c(Nc3ccc(F)c(Cl)c3)c(C#N)cnc12 [Example 395]	–
680 nM	–	N#Cc1cnc2c(Br)cc(NCc3nn[nH]c3-c3ccc(F)cc3)cc2c1Nc1ccc(F)c(Cl)c1 [Example 170, 8-bromo-4-[(3-chloro-4-fluorophenyl)amino]-6-({[5-(4-fluorophenyl)-1H-1,2,3-triazol-4-yl]methyl}amino)quinoline-3-carbonitrile]	–
–	160 nM	N#Cc1cnc2c(Cl)cc(NCc3cn(CCCN4CCNCC4)nn3)cc2c1Nc1ccc(F)c(Cl)c1 [Example 597]	–
–	–	N#Cc1cnc2c(Cl)cc(N(C=O)Cc3cn(CCCNC=O)nn3)cc2c1Nc1ccc(F)c(Cl)c1 [Example 915]	IC50 [3]: 170 nM
–	530 nM	Cn1cnc(CNc2cc(Cl)c3ncc(C#N)c(Nc4ccc(F)c(Cl)c4)c3c2)n1 [Example 478]	–
–	790 nM	N#Cc1cnc2c(Cl)cc(NCc3cn(CC4CCCCC4)nn3)cc2c1Nc1ccc(F)c(Cl)c1 [Example 585]	–
–	–	N#Cc1cnc2c(Cl)cc(NCc3cn(CCN4CCCCC4)nn3)cc2c1NC1CCC1 [Example 954]	IC50 [4]: 520 nM
–	–	COCCn1cc(CNc2cc(Cl)c3ncc(C#N)c(Nc4ccc(F)c(Cl)c4)c3c2)nn1 [Example 733]	IC50 [3]: 20 nM
1700 nM	–	Cc1cc(CNc2cc(C(=O)N(C)C)c3ncc(C#N)c(Nc4ccc(F)c(Cl)c4)c3c2)n(C)n1 [Example 90, 4-(3-chloro-4-fluorophenylamino)-3-cyano-6-((1,3-dimethyl-1-H-pyrazol-5-yl)methylamino)-N, N-dimethylquinoline-8-carboxamide]	–
67 nM	–	N#Cc1cnc2c(Br)cc(NCc3nn[nH]c3CNCCO)cc2c1Nc1ccc(F)c(Cl)c1 [Example 295, 8-Bromo-4-(3-chloro-4-fluoro-phenylamino)-6-({5-[(2-hydroxy-ethylamino)-methyl]-1H-[1,2,3]triazol-4-ylmethyl}-amino)-quinoline-3-carbonitrile]	–
–	–	N#Cc1cnc2c(Cl)cc(NCc3cn(CCCN4CCCNCC4)nn3)cc2c1Nc1ccc(F)c(Cl)c1 [Example 767]	IC50 [3]: 74 nM
–	–	N#Cc1cnc2c(Cl)cc(NCc3cn(C4CC5CCC(C4)N5CC4CC4)nn3)cc2c1Nc1ccc(F)c(Cl)c1 (centres unmarked) [Example 1057]	IC50 [4]: 11 nM
240 nM	–	N#Cc1cnc2ccc(NCc3ccco3)cc2c1Nc1ccc(F)c(Cl)c1 [Example 3, 4-(3-Chloro-4-fluoro-phenylamino)-6-[(furan-2-ylmethyl)-amino]-quinoline-3-carbonitrile]	–
–	5100 nM	Cn1ccnc1CNc1ccc2ncc(C#N)c(NC(C)(C)C)c2c1 [Example 407]	–
–	–	N#Cc1cnc2c(Br)cc(NCc3cn(Cc4ccccn4)nn3)cc2c1Nc1ccc(F)c(Cl)c1 [Example 753]	IC50 [3]: 33 nM
910 nM	–	N#Cc1cnc2c(CC(O)CO)cc(NCc3cnc[nH]3)cc2c1Nc1ccc(F)c(Cl)c1 (centres unmarked) [Example 314, 4-[(3-chloro-4-fluorophenyl)amino]-8-(2,3-dihydroxypropyl)-6-[(1H-imidazol-5-ylmethyl)amino]quinoline-3-carbonitrile]	–
–	–	CC(CNc1cc(Cl)c2ncc(C#N)c(Nc3ccc(F)c(Cl)c3)c2c1)c1ccncc1 (centres unmarked) [Example 806]	IC50 [3]: 200 nM
460 nM	–	N#Cc1cnc2c(Cl)cc(NCc3ccnc4ccccc34)cc2c1Nc1ccc(F)c(Cl)c1 [Example 278, 8-Chloro-4-[(3-chloro-4-fluorophenyl)amino]-6-[(quinolin-4-ylmethyl)amino]quinoline-3-carbonitrile]	–
–	51 nM	N#Cc1cnc2c(Cl)cc(NCC(=O)O)cc2c1Nc1ccc(F)c(Cl)c1 [Example 465]	–
